This assay relates to ulcers in 24 hr. fasted S.D. rats. The assay can be described thus: Indomethacin-Induced Ulcer Assay (assay B). The format is in vivo. The note with it: 15 min prior to indomethacin 10 mg/kg p.o., stomach mucosae examined 4 hours later. The protocol: B. Indomethacin-Induced Ulcer Assay
Indomethacin, 10 mg/kg p.o., is used to induce ulcers in 24 hr. fasted S.D. rats. Fifteen minutes prior to indomethacin administration, groups of rats each receive either an aqueous vehicle (5% wt. methylcellulose) or the test compound at various doses perorally. Four hours later the animals are sacrificed and stomach-mucosae are examined for resulting ulcers.
Following the procedure of assay B (Indomethacin-Induced Ulcer Assay), 4-bromo-2,7-dimethoxy-3H-phenothiazin-3-one was tested for ulcer inhibition. For Table 49-1, % Inhibition was calculated as: [formula]

As usually defined, the % Inhibition is the change of the read-out against control, counted positive when it falls.

Turning to `COc1ccc2nc3cc(OC)c(=O)c(Br)c-3sc2c1` [4-Bromo-2,7-dimethoxy-3H-phenothiazin-3-one], the “% Inhibition” value runs as follows: (Dose 0.003 mg/kg perorally) 38%; (Dose 0.01 mg/kg perorally) 56%; (Dose 0.03 mg/kg perorally) 69%; (Dose 0.1 mg/kg perorally) 66%; (Dose 0.3 mg/kg perorally) 70%; (Dose 3.0 mg/kg perorally) 87%.

The values are drawn from patent EP0155623A2, “Use of lipoxygenase inhibitors for the preparations of cytoprotective pharmaceutical compostions and process for the preparation of a cytoprotective pharmaceutical composition” (Merck & Co., Inc., priority 1984, dated 1985).
